From PMC7663272, “Discovery of Tricyclic Pyranochromenone as Novel Bruton’s Tyrosine Kinase Inhibitors with In Vivo Antirheumatic Activity” (International Journal of Molecular Sciences, 2020)

Assays:
ITK = target: T1, ITK (Homo sapiens, UniProt Q08881); experiment: HotSpot kinase enzymatic assay, ITK; type: biochemical
T1 construct: purchased Reaction Biology Corporation
T1 sequence (Q08881 1-620): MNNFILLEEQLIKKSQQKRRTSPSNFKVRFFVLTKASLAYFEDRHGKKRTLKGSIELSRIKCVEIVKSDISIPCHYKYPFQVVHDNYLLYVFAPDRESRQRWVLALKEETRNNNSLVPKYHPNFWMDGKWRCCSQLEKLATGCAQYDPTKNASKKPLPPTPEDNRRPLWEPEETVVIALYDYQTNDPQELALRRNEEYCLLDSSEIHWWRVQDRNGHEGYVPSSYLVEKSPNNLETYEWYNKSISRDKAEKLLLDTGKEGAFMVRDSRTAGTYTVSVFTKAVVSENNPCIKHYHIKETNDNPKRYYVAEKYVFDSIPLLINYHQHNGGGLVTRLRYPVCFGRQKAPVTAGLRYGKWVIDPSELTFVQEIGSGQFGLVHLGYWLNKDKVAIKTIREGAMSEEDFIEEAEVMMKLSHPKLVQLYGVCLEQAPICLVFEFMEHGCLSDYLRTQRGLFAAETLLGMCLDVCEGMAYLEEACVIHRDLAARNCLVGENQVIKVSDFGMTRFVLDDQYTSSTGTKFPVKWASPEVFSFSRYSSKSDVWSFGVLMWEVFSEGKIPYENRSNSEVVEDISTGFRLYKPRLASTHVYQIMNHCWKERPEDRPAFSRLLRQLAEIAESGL
Description: (§1) Therefore, efforts have focused on developing new compounds with good selectivity profiles. […] Compound 8 was selective against BTK. The biochemical activities of compound 8 differed among TEC family kinases. […] The inhibitory potential of compound 8 differed between members of the EGFR family. […] The inhibitory activity of compound 8 against JAK3 was also low.
(§2) Kinase enzymatic assays for BTK, BMX, TXK, TEC, ITK, EGFR, ERBB2, ERBB4, and JAK3 were performed at Reaction Biology Corporation (www.reactionbiology.com, Malvern, PA, USA) using the HotSpot assay platform. Briefly, specific kinase/substrate pairs and the required cofactors were prepared in a reaction buffer comprising 20 mM HEPES (pH 7.5), 10 mM MgCl2, 1 mM EGTA, 0.02% Brij35, 0.02 mg/mL BSA, 0.1 mM Na3VO4, 2 mM DTT, and 1% DMSO. The compounds were added to the reaction mixture and allowed to incubate. Approximately 20 min later, a mixture of ATP (Sigma-Aldrich, St. Louis, MO, USA) and ^33P ATP (PerkinElmer, Waltham, MA, USA) was added to the reaction mixture at a final concentration of 10 μM. The reactions were performed at room temperature for 120 min; subsequently, the reactions were spotted onto P81 ion exchange filter papers (Whatman Inc., Maidstone, UK). Any unbound phosphate was removed by thoroughly washing the filter papers with 0.75% phosphoric acid. […]

[1] = GIT-PAMPA in vitro permeability assay; type: in vitro ADME
Description: GIT-PAMPA was performed according to the manufacturer’s instructions (Pion Inc., Billerica, MA, USA). Briefly, the test compound was diluted in donor buffer (pH 7.4) to obtain a concentration of 50 μM. Then, 200 μL of this solution was added to the lower part of a 96-well PAMPA sandwich plate. The transmembrane side of the donor part was coated with a GIT-0 lipid solution, and 200 μL of the acceptor buffer was added to the upper part of the PAMPA sandwich plate. After incubating for 4 h at 25 °C, each sample was transferred to a fresh UV plate, after which the UV spectra were measured at wavelengths of 250–498 nm, and the permeability rate (Pe, 10^−6 cm/sec) was analyzed using the Pion PAMPA Explorer software (version 3.8, Pion Inc., Billerica, MA, USA).

JAK3 = target: T2, JAK3 (Homo sapiens, UniProt P52333); experiment: HotSpot kinase enzymatic assay, JAK3; type: biochemical
T2 construct: purchased Reaction Biology Corporation
T2 sequence (P52333 1-1124): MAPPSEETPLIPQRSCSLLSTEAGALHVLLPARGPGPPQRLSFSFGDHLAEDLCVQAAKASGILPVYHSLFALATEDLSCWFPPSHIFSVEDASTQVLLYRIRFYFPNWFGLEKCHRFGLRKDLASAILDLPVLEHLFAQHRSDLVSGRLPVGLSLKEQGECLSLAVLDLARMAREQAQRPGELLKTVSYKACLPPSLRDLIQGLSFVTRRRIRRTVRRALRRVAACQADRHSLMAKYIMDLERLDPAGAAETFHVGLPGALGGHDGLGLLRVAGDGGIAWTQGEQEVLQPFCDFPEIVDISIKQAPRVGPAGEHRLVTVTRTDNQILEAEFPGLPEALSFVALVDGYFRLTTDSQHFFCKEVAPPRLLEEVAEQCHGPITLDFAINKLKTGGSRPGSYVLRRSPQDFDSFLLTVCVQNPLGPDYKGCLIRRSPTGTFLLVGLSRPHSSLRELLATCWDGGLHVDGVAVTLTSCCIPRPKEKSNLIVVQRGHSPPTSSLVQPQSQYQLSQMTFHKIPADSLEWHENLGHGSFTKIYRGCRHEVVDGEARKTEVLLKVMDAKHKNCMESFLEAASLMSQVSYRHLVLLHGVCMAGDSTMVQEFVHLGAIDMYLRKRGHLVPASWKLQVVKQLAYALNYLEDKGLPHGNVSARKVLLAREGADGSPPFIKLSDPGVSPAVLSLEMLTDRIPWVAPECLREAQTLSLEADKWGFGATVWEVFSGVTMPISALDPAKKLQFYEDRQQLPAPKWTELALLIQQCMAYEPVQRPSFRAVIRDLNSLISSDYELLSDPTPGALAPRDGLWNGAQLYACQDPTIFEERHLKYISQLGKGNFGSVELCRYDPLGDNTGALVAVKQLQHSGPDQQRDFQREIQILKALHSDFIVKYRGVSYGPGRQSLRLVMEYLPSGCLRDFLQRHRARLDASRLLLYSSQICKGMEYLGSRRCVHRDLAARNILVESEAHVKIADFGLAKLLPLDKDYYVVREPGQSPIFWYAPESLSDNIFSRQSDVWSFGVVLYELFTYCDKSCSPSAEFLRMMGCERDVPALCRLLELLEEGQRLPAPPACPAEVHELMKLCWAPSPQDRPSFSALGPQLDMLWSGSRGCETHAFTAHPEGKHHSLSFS
Description: as §1, §2

## C=CC(=O)O[C@H]1Cc2cc3ccc(=O)oc3cc2OC1(C)C [Compound 8, (7S)-(+)-Acrylic acid, 8,8-dimethyl-2-oxo-6,7-dihydro-2H,8H-pyrano [3,2-g]chromen-7-yl ester]
ITK
  inhibitory activity against ITK (in words): weak inhibitory activity
ITK; 10 µM, mean of two experiments
  inhibition at 10 µM: 17.3%
[1]
  permeability (in words): excellent
JAK3
  inhibitory activity against JAK3 (in words): low
JAK3; 10 µM, mean of two experiments
  inhibition at 10 µM: 13.2%
